Measured values reported in PubChem BioAssay AID540258 (Broad Institute, 2011).
Calls of active or inactive are those of the source.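 How the source made its calls: active means fitted curve reaching 40% activation at or below the top valid dose tested; inconclusive means flat curve at 30 to 70% activation, or poor fit; inactive means the rest.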

system: SK-MEL-5 TRPM1 promoter luciferase reporter, 24 h; assay: MITF activators via TRPM1 promoter reporter, dose response, SK-MEL-5 cells, luciferase, cherry-pick samples (AID 540258); conditions: not given;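 on AC40: potency for activators that raise TRPM1 promoter luciferase signal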

Q: Which AC40 does the source give for `c1csc(-c2nc(N3CCCCC3)no2)c1` here?
A: Its AC40 is 1.44 µM.

Q: With `CCCC(=O)Nc1nc(-c2ccccc2)ns1` as the compound, how does the AC40 read?
A: The AC40 was 4.23 µM.

Q: Which AC40 does the source give for `O=C(Nc1cccnc1)c1cc(-c2ccc(Cl)cc2)on1` here?
A: Its AC40 is 15.3 µM.

Q: With `Oc1cccc(-c2nc3ccc4ccccc4c3c3c2CCC3)c1` as the compound, how does the AC40 read?
A: The AC40 was 3.02 µM.

Q: For `Cc1nn(CC(C)C)c(Cl)c1C(=O)NC1CCC(C)CC1` (configuration not stated), which AC40 is on record?
A: The AC40 was 2.63 µM.

Q: For `CC(=O)Nc1c(-c2ccc3ccccc3c2)nc2ccccn12`, which AC40 is on record?
A: Its AC40 is 9.16 µM.

Q: For `c1ccc(CSCc2cn3ccsc3n2)cc1`, which AC40 is on record?
A: Its AC40 is 11.2 µM.

Q: With `CN1CCN(/N=C/c2ccc(Br)cc2)CC1` as the compound, how does the AC40 read?
A: The AC40 was 6 µM.

Q: Which AC40 does the source give for `Cc1ccsc1C(=O)OCc1nnc(-c2ccccc2)o1` here?
A: The AC40 was 7.44 µM.

Q: With `Cc1ccc(NC(=O)CCCc2ccccc2)nc1` as the compound, how does the AC40 read?
A: The AC40 was 5.72 µM.

Q: For `CC(C)(C)c1csc(N/N=C/c2ccc(O)cc2)n1`, which AC40 is on record?
A: The AC40 was 17.8 µM.

Q: Which AC40 does the source give for `Clc1ccc(-n2nnc(-c3cccnc3Cl)n2)cn1` here?
A: Its AC40 is 3.3 µM.

Q: With `Cc1nc2ccc(NC(=O)Cc3c(F)cccc3Cl)cc2s1` as the compound, how does the AC40 read?
A: The AC40 was 3.66 µM.

Q: With `COC(=O)Cn1c(C)nc2c(sc3nc(C)cc(C)c32)c1=O` as the compound, how does the AC40 read?
A: The AC40 was 2.35 µM.

Q: For `O=C(NC1CCCCCC1)c1c(O)c2ccccc2[nH]c1=O`, which AC40 is on record?
A: Its AC40 is 1.1 µM.

Q: Which AC40 does the source give for `COC(=O)C(Cc1ccc(O)cc1)N1Cc2ccccc2C1=O` (configuration not stated) here?
A: Its AC40 is 5.9 µM.

Q: For `C/C(=N/OC(=O)CC(C)C)c1cc(-c2ccc(Cl)cc2)no1`, which AC40 is on record?
A: Its AC40 is 2.65 µM.

Q: With `CCCCNC(=O)c1cc2ccccc2s1` as the compound, how does the AC40 read?
A: The AC40 was 31 µM.

Q: Which AC40 does the source give for `C(=N\Nc1nc2ccccc2[nH]1)/c1c[nH]c2ccccc12` here?
A: Its AC40 is 5.09 µM.

Q: For `COc1cccc(NC(=O)C(=O)NCCC2CCCCN2S(=O)(=O)c2cccs2)c1` (configuration not stated), which AC40 is on record?
A: The AC40 was 4.24 µM.

Q: Which AC40 does the source give for `COc1ccccc1OCc1cc(-c2ccccc2)no1` here?
A: Its AC40 is 2.28 µM.

Q: Which AC40 does the source give for `COc1ccc(C(=O)NCCn2ccc3ccccc32)cc1` here?
A: The AC40 was 1.66 µM.

Q: With `Cc1ccc(-n2nc3ccc(NC(=O)C(C)C)cc3n2)cc1` as the compound, how does the AC40 read?
A: The AC40 was 0.555 µM.

Q: Which AC40 does the source give for `N/C(=N\OC(=O)C12CC3CC(CC(C3)C1)C2)c1ccccn1` here?
A: Its AC40 is 8.23 µM.

Q: For `CC(=O)N1N=C(c2ccc(C)cc2)OC1c1ccc(Br)cc1` (configuration not stated), which AC40 is on record?
A: Its AC40 is 2.83 µM.

Q: Which AC40 does the source give for `Cc1nc(-c2noc(-c3ccccc3Cl)n2)c(C(F)(F)F)o1` here?
A: The AC40 was 11.9 µM.

system: not listed separately; assay: as above; conditions: SK-MEL-5 TRPM1 promoter luciferase reporter, 24 h; at 11 µM (top of the series); 100% = twice the neutral-control signal

Q: With `Cc1ccn2cc(C(=O)Nc3nnc(C)s3)nc2c1` as the compound, how does the activation read?
A: Its activation is 28.3% (inactive).

same assay, conditions: SK-MEL-5 TRPM1 promoter luciferase reporter, 24 h; at 35 µM (top of the series); 100% = twice the neutral-control signal

Q: With `COc1ccc(NC2=Nc3ccccc3CC2)cc1` as the compound, how does the activation read?
A: The activation was 2.84% (inactive).

Q: Which activation does the source give for `COc1ccccc1C(=O)Nc1ccc2c(C)cc(=O)oc2c1` here?
A: Its activation is 29.6% (inactive).

Q: For `COc1cccc(/C=N/Nc2c(Cl)cncc2Cl)c1O`, which activation is on record?
A: The activation was 25.5% (inactive).

Q: For `Cc1ccccc1C(=O)O/N=C(\N)Cc1cccs1`, which activation is on record?
A: Its activation is 23.1% (inactive).

Q: With `Cc1cccc(C(=O)Nc2sc3c(c2C#N)CCCCC3)c1` as the compound, how does the activation read?
A: Its activation is 3.85% (inactive).

Q: With `Cc1ccc(SCc2cn3c(C)csc3n2)cc1` as the compound, how does the activation read?
A: The activation was -37.7% (inactive).

Q: With `Cc1ccn2cc(-c3cccc(NS(C)(=O)=O)c3)nc2c1` as the compound, how does the activation read?
A: Its activation is 32.6% (inactive).

Q: Which activation does the source give for `O=C(CNc1ccccc1OC(F)F)N1CCc2ccccc21` here?
A: Its activation is 31.9% (inactive).

Q: Which activation does the source give for `Cc1ccc(/C=N/c2sc3c(c2C#N)CCC3)s1` here?
A: The activation was 3.01% (inactive).

Q: For `COc1ccc(/C=C/c2ccc3c(Br)ccc(O)c3n2)cc1`, which activation is on record?
A: Its activation is 25.4% (inactive).

Q: With `Cc1ccc(NC(=O)CN2CCCC2c2cccn2C)c(Br)c1` (configuration not stated) as the compound, how does the activation read?
A: Its activation is 29% (inactive).

Q: With `Fc1ccccc1Nc1nc2ccccc2o1` as the compound, how does the activation read?
A: The activation was -20% (inactive).

Q: Which activation does the source give for `CCCc1ccc(-c2cc(C(=O)NCCc3ccc(S(N)(=O)=O)cc3)c3ccccc3n2)cc1` here?
A: Its activation is 26.4% (inactive).

Q: For `CCN(CC)C(=O)Oc1ccc2c(=O)c(-c3ccc(OC)cc3)coc2c1`, which activation is on record?
A: Its activation is -22.5% (inactive).

Q: With `CC(C)(C)c1csc(NC2=NS(=O)(=O)c3ccccc32)n1` as the compound, how does the activation read?
A: Its activation is 7.7% (inactive).

Q: With `Cc1ccc2oc(Nc3nc(C)c(C)c(C)n3)nc2c1` as the compound, how does the activation read?
A: Its activation is 34.2% (inactive).

Q: With `CCN(CC)S(=O)(=O)c1cc(C(=O)Nc2cc(C)[nH]n2)ccc1Cl` as the compound, how does the activation read?
A: Its activation is 32.8% (inactive).

Q: With `Cc1c(C(=O)Nc2ccccc2F)cnn1-c1ccccc1` as the compound, how does the activation read?
A: The activation was 27.5% (inactive).

Q: With `CC1CCC(NC(=O)c2cc3c(s2)CCCC3)CC1` (configuration not stated) as the compound, how does the activation read?
A: The activation was 33.2% (inactive).

Q: With `CCc1nnc(NS(=O)(=O)c2ccc(NC(=O)c3cccc(Cl)c3)cc2)s1` as the compound, how does the activation read?
A: The activation was -14.9% (inactive).

Q: For `CC(=O)c1ccc(NC(=O)c2noc3c2CCCCC3)cc1`, which activation is on record?
A: Its activation is -0.504% (inactive).

Q: For `CC(C)C(=O)Nc1cccc(C(=O)Nc2nnc(C(C)C)s2)c1`, which activation is on record?
A: Its activation is 16.6% (inactive).

Q: With `Cc1cc(C)n2nc(SCN3C(=O)c4ccccc4C3=O)nc2n1` as the compound, how does the activation read?
A: The activation was -5.27% (inactive).

Q: For `CC(C)(C)C(=O)Nc1nc2cc3c(cc2s1)OCO3`, which activation is on record?
A: The activation was -25.8% (inactive).

Q: For `Cc1nnc2sc(-c3ccc(N(C)C)cc3)nn2c1=O`, which activation is on record?
A: The activation was -5.15% (inactive).

Q: Which activation does the source give for `Cc1nc2ccccn2c1C(=O)N/N=C/c1ccc2c(c1)OCO2` here?
A: Its activation is 34.3% (inactive).

Q: Which activation does the source give for `c1ccc(-c2ccc(-c3cnc4n3CCCCC4)cc2)cc1` here?
A: Its activation is 30.4% (inactive).

Q: Which activation does the source give for `COC(=O)Nc1nnc(-c2ccccc2Cl)s1` here?
A: Its activation is 36% (inactive).

Q: With `COc1ccc(C(=O)Nc2cc(OC)nc(OC)n2)cc1` as the compound, how does the activation read?
A: Its activation is 6.12% (inactive).

Q: For `Cc1ccc(N=Nc2ccc(O)cc2)c(Br)c1`, which activation is on record?
A: The activation was -1.83% (inactive).

Q: With `Cc1cc(C)n(-c2nnc(NC(C)(C)C)nn2)n1` as the compound, how does the activation read?
A: Its activation is 31.6% (inactive).

Q: For `O=C(Nc1cccc2[nH]ncc12)c1ccc(F)cc1`, which activation is on record?
A: Its activation is 28.3% (inactive).

Q: Which activation does the source give for `C/C(=N\OC(=O)c1cccc(C(F)(F)F)c1)c1sc(-c2ccccc2)nc1C` here?
A: Its activation is 14.6% (inactive).

Q: For `O=C(Nc1cnc2ccccc2c1)N1CCCCC1`, which activation is on record?
A: The activation was 8.92% (inactive).

Q: For `O=c1[nH]c(Cc2cccs2)nc2scc(-c3ccc(Cl)cc3)c12`, which activation is on record?
A: The activation was 14.1% (inactive).

Q: Which activation does the source give for `CC(C)NC(=O)c1ccc2c3n(nc2c1)-c1ccc(Cl)cc1CO3` here?
A: Its activation is -2.69% (inactive).

Q: With `O=C(N/N=C/c1ccc(OC(=O)c2ccccc2Cl)cc1)c1ccccn1` as the compound, how does the activation read?
A: Its activation is 6.04% (inactive).

Q: With `CCN(CC)S(=O)(=O)c1cccc(C(=O)N/N=C(\C)c2cccs2)c1` as the compound, how does the activation read?
A: Its activation is 23.7% (inactive).

Q: For `O=c1[nH]c(COc2ccccc2)nc2ccccc12`, which activation is on record?
A: The activation was 24.6% (inactive).

Q: For `COC(=O)C(C)N1C(=O)S/C(=C/c2cc(C)n(C(C)C)c2C)C1=O` (configuration not stated), which activation is on record?
A: The activation was -32% (inactive).

Q: Which activation does the source give for `CCN(CC)c1ccc(C(=O)NNC(=O)c2cccn2C)cc1` here?
A: The activation was 25.3% (inactive).

Q: For `CCn1cnc2c(Nc3cccc(Cl)c3)nc(C#N)nc21`, which activation is on record?
A: The activation was 14.6% (inactive).

Q: Which activation does the source give for `Cc1ccc(Nc2nc(CSc3n[nH]c(N)n3)cs2)cc1` here?
A: Its activation is -11.9% (inactive).

Q: With `O=C(Nc1ccccc1)C(=O)Nc1ccc2c(c1)N(C(=O)C1CC1)CCC2` as the compound, how does the activation read?
A: Its activation is -36.8% (inactive).

Q: With `COc1cccc(CN(C)C(=O)c2ccc(COc3ccc(Cl)cc3)cc2)c1OC` as the compound, how does the activation read?
A: The activation was 32.6% (inactive).

Q: Which activation does the source give for `COc1cccc(CNc2nc3ccccc3n2C)c1O` here?
A: Its activation is -9.75% (inactive).

Q: With `CC(=O)Nc1cccc(-c2csc(Nc3ccc(C)cn3)n2)c1` as the compound, how does the activation read?
A: Its activation is -25.2% (inactive).

Q: For `COC(=O)Cn1c(=NC(=O)c2ccc(Cl)s2)sc2cc(C)ccc21`, which activation is on record?
A: The activation was 23.7% (inactive).

Q: Which activation does the source give for `COc1ccc(-c2cc(=O)c3cc(C)ccc3[nH]2)cc1` here?
A: The activation was -4.97% (inactive).

Q: For `Nc1ncccc1OCc1ccc(Br)cc1`, which activation is on record?
A: The activation was -6.84% (inactive).

Q: For `CC(C)(C)N1C(=O)c2ccc(C(=O)Nc3nccs3)cc2C1=O`, which activation is on record?
A: The activation was 39% (inactive).

Q: With `CSCC[C@H](NC(=O)[C@@H]1Cc2ccccc2CN1)C(=O)NC[C@H]1CC[C@H](C(=O)O)CC1` as the compound, how does the activation read?
A: Its activation is -11.7% (inactive).

Q: Which activation does the source give for `CN1CCc2c(sc(NC(=O)c3ccc4ccccc4c3)c2C(N)=O)C1` here?
A: Its activation is -68.3% (inactive).

Q: Which activation does the source give for `O=C(CNC(=O)c1cccs1)c1ccc(Br)cc1` here?
A: Its activation is 1.98% (inactive).

Q: With `CC(c1ccccc1)c1nnc(NC(=O)Nc2ccccc2F)s1` (configuration not stated) as the compound, how does the activation read?
A: The activation was 38.2% (inactive).
